Measured values reported in the NIST ThermoML archive (doi:10.1016/j.fluid.2013.11.031).
Numbers after ± are expanded uncertainties.

Settings: Liquid, Vibrating tube method

CCCO [propan-1-ol]
mass density [kg/m3]
Settings | 293.15 K | 313.15 K | 333.15 K | 353.15 K
100 kPa | 803.8 ± 0.8 | 787.1 ± 0.8 | 769.9 ± 0.8 | 752 ± 0.8
10000 kPa | 811.3 ± 0.8 | 795.5 ± 0.8 | 780 ± 0.8 | 762.5 ± 0.8
20000 kPa | 818.1 ± 0.8 | 803 ± 0.8 | 788.3 ± 0.8 | 771.8 ± 0.8
30000 kPa | 824.4 ± 0.9 | 810 ± 0.9 | 795.7 ± 0.9 | 780.2 ± 0.9
40000 kPa | 830 ± 0.9 | 816.4 ± 0.9 | 802.5 ± 0.9 | 787.9 ± 0.9
50000 kPa | 835.6 ± 0.9 | 822.3 ± 0.9 | 809 ± 0.9 | 795 ± 0.9
60000 kPa | 841 ± 0.9 | 827.9 ± 0.9 | 815 ± 1 | 801.4 ± 1
70000 kPa | 845.9 ± 1 | 833.2 ± 1 | 820.6 ± 1 | 807.7 ± 1
80000 kPa | 850.7 ± 1 | 838.3 ± 1 | 826.2 ± 1 | 813.4 ± 1
90000 kPa | 855.2 ± 1 | 843 ± 1 | 831.2 ± 1 | 818.7 ± 1.1
100000 kPa | 859.6 ± 1 | 847.9 ± 1.1 | 836.3 ± 1.1 | 823.8 ± 1.1
110000 kPa | 863.7 ± 1.1 | 852.3 ± 1.1 | 840.9 ± 1.1 | 828.8 ± 1.1
120000 kPa | 867.8 ± 1.1 | 856.6 ± 1.1 | 845.3 ± 1.1 | 833.5 ± 1.2
130000 kPa | 871.6 ± 1.1 | 860.7 ± 1.1 | 849.6 ± 1.2 | 837.9 ± 1.2
140000 kPa | 875.3 ± 1.1 | 864.6 ± 1.1 | 853.6 ± 1.2 | 842.1 ± 1.2
